The text below walks through data of PubChem BioAssay (NCI).

Common to all, as to test: inhibition of tumour cell growth, NCI panel, 48 h
In assay [1] the test system is ACHN renal.
Assay [2] relates to CCRF-CEM leukemia.
Assay [3] concerns NCI-H522 lung.
For assay [4], the system named is NCI-H460 lung.
The subject of assay [5] is IGROV1 ovarian.
Assay [6] deals with SK-MEL-2 melanoma.
Assay [7] deals with NCI-H23 lung.
Assay [8] has as its system SF-268 CNS.
Assay [9] deals with UACC-62 melanoma.
Assay [10] concerns HCT-116 colon.

Values joined by “and” are separate entries in the source; they are usually repeats but may differ in a detail not shown here. Equal values may be shown once.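 Each compound was tested at five concentrations against cells in 96-well plates for 48 hours. GI50 = concentration required for 50% inhibition of growth. TGI denotes the concentration required for complete inhibition of growth.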 Where only a bound is given, the exact number is not on record here.

Consider `FC(F)(F)c1ccc(NCc2nc3ccccc3[nH]2)cc1`, for which the GI50 in [1] is 34.5 µM; in assay [2] it was 32.5 µM; in assay [3], 24.7 µM; in [4], 19.5 µM; in assay [5], 39.9 µM; in [6] it was 20.7 µM. Also, the GI50 in assay [7] was 22.9 µM; in assay [8], 40.8 µM; in assay [9], 18.7 µM; in assay [10], 23 µM. Further, the TGI was over 100 µM in assay [1]; over 100 µM in assay [2]; 95.3 µM in assay [3]; 47.7 µM in assay [4]; over 100 µM in assay [5]; 42.1 µM in [6]. For the same compound, the TGI in assay [7] was 80.2 µM; in assay [8], over 100 µM; in assay [9], 56.5 µM; in assay [10], 68.7 µM.
Turning to `COc1ccc(/C=C2/CN(CCC#N)C/C(=C\c3ccc(OC)cc3)C2=O)cc1`, the GI50 was 2.06 µM in [1]; 2.46 µM in assay [2]; 1.83 µM in [3]; 1.97 µM in assay [4]; 2.77 µM in assay [5]; 2.72 µM in assay [6]. The GI50 in assay [7] is 3.34 µM; in assay [8], 3.27 µM; in assay [9], 1.66 µM; in [10] it was 0.829 µM. Moreover, the TGI in assay [1] is 4.48 µM; in assay [2], over 100 µM; in assay [3], 4.32 µM; in [4], 4.75 µM; in [5], 8.26 µM; in assay [6] it was 7.15 µM. Besides, the TGI is 19.8 µM in [7], 36.7 µM in assay [8], 3.81 µM in [9] and 2.38 µM in [10].
For `COc1cc(Cn2c(SCC(=O)Nc3ccc(Cl)cc3)nc3ccccc3c2=O)cc(OC)c1OC`, the GI50 is 3.15 µM in [1]; over 100 µM in [2]; 4.89 µM in [3]; 10.4 µM in assay [4]; 19 µM in [5]; 15.2 µM in [6]. Moreover, the GI50 in assay [7] is 16.5 µM; in assay [8], 6.61 µM; in assay [9], 6.29 µM; in assay [10], 4.04 µM. Moreover, the TGI in assay [1] was 11.8 µM; in [2], over 100 µM; in assay [3], 21.9 µM; in assay [4], 59.1 µM; in [5] it was 55.8 µM; in [6], 32.9 µM. In addition, the TGI in assay [7] is 72.6 µM; in assay [8], 24.8 µM; in [9], 37.1 µM; in assay [10], 14.9 µM.
As for `COC(CC1(OC)OC(=O)C=C1N)OC` (configuration not stated), the TGI in assay [1], in assay [2], in assay [3], in assay [4], in assay [5] and in [6] was over 100 µM throughout. In addition, the TGI in assay [7], in [8], in assay [9] and in assay [10] was over 100 µM in each case.
With `COC(=O)NC(=O)c1cn(C2CCCCC2)c(=O)[nH]c1=O`, the TGI in assay [1], in assay [2], in assay [3], in assay [4], in assay [5] and in [6] was over 100 µM throughout. The TGI in assay [7], in [8], in [9] and in [10] was over 100 µM in each case.
Take `NC(=O)c1cc([N+](=O)[O-])cc([N+](=O)[O-])c1`: the TGI in [1], in assay [2], in [3], in assay [4], in assay [5] and in assay [6] was over 100 µM in each case. In addition, the TGI in assay [7], in [8], in assay [9] and in [10] was over 100 µM each time.
Take `COC(=O)[C@]12CC[C@@H](C)[C@H](C)[C@@H]1C1=CC[C@@H]3[C@@]4(C)CC(=O)[C@H](O)[C@@](C)(CO)[C@@H]4C(=O)C[C@@]3(C)[C@]1(C)CC2`: the GI50 in assay [1] is 12.9 µM; in assay [2], 3.38 µM; in [3], 4.27 µM; in assay [4], 6.66 µM; in [5], 12.7 µM; in [6], 14.5 µM. Further, the GI50 was 13.9 µM in assay [7], 12.6 µM in assay [8], 3.25 µM in assay [9] and 10.9 µM in assay [10]. Moreover, the TGI came to 28.3 µM in assay [1]; 28.7 µM in [2]; 22.1 µM in assay [3]; 22.6 µM in assay [4]; 28.1 µM in assay [5]; 29.4 µM in [6]. Also, the TGI in [7] was determined as 31.1 µM; in assay [8] it was 26.5 µM; in assay [9], 20.8 µM; in assay [10], 23.3 µM.
For the compound `O=C(NC1C(=O)NNC1c1ccccc1Cl)c1ccccc1` (configuration not stated), the TGI in assay [1], in assay [2], in [3], in [4], in assay [5] and in [6] was over 100 µM each time. Further, the TGI in assay [7], in assay [8], in [9] and in [10] was over 100 µM each time.
On to `CC/C(=N/N=C(N)N)c1ccc(NC(=O)Nc2ccc(/C(CC)=N/N=C(N)N)cc2)cc1`, for which the GI50 is 5.78 µM in [1]; 5.8 µM in assay [2]; 1.74 µM in assay [3]; 4.1 µM in assay [4]; 3.15 µM in assay [5]; 4.03 µM in assay [6]. Also, the GI50 in assay [7] is 11.5 µM; in assay [8], 12.8 µM; in assay [9], 5.13 µM; in assay [10], 5.72 µM. Also, the TGI was 24.5 µM in [1]; 28.7 µM in [2]; 7.03 µM in assay [3]; over 100 µM in assay [4]; 14.8 µM in [5]; 31.2 µM in assay [6]. The TGI in assay [7] was 50.8 µM; in [8] it was over 100 µM; in assay [9], 22.7 µM; in [10], 25.5 µM.
Turning to `O=C(Nc1ccccc1)Nc1ccc(Cl)c(Cl)c1`, the GI50 is 3.59 µM in assay [1]; 4.87 µM in assay [2]; 1.69 µM in assay [3]; 3.06 µM in assay [4]; 3.63 µM in assay [5]; 2.32 µM in assay [6]. Also, the GI50 in [7] is 2.58 µM; in assay [8], 4.76 µM; in assay [9], 2.66 µM; in assay [10], 3.03 µM. Also, the TGI is 97.1 µM in [1]; over 100 µM in assay [2]; 7.67 µM in assay [3]; over 100 µM in assay [4]; over 100 µM in [5]; 9.97 µM in assay [6]. For the same compound, the TGI in assay [7], in assay [8], in [9] and in [10] was over 100 µM each time.
With `O=C1NC(=N[C@H](CO)c2ccccc2)S/C1=C\c1ccc2ncccc2c1`, the GI50 in assay [1] was 4.91 µM; in [2], 4.63 µM; in assay [3], 1.54 µM; in [4], 3.71 µM; in [5], 4.44 µM; in assay [6] it was 5.49 µM. For the same compound, the GI50 in [7] is 6.42 µM; in assay [8] it was 3.82 µM; in assay [9], 5.74 µM; in [10], 1.68 µM. The TGI in [1] is over 24 µM; in assay [2], 16.7 µM; in assay [3], 6.31 µM; in [4], 24.6 µM; in assay [5], over 17.1 µM; in [6], 14.3 µM. Moreover, the TGI in assay [7] is over 25 µM; in assay [8], over 25 µM; in assay [9] it was 24.7 µM; in assay [10], over 21 µM.
Consider `COC1=CC2CCN3Cc4cc5c(cc4C(C1O)C23)OCC5` (configuration not stated), for which the GI50 in assay [1] was 0.306 µM; in [3], 28 µM; in [4] it was 2.1 µM; in assay [5] it was 4.59 µM; in [6], 14.4 µM; in assay [7], 2.17 µM. Also, the GI50 in assay [8] was 4.57 µM; in assay [9] it was 2.05 µM; in [10] it was 1.68 µM. Moreover, the TGI in [1] was 2.31 µM; in assay [2], over 100 µM; in assay [3] it was over 100 µM; in assay [4], over 100 µM; in [5], over 24.8 µM; in assay [6] it was over 43 µM. Further, the TGI was 8.28 µM in assay [7], over 100 µM in assay [8], 11.1 µM in assay [9] and over 49.4 µM in assay [10].
Consider `CC[C@@]1(O)C(=O)NCc2c1cc1n(c2=O)Cc2cc3c(NC(C)=O)cccc3nc2-1`, for which the GI50 in [1], in assay [2], in assay [3], in assay [4], in assay [5] and in assay [6] was over 100 µM in each case. The GI50 in assay [7], in assay [8], in assay [9] and in [10] was over 100 µM throughout. Further, the TGI in [1], in [2], in [3], in assay [4], in assay [5] and in assay [6] was over 100 µM each time. The TGI in [7], in [8], in assay [9] and in assay [10] was over 100 µM in each case.
In the case of `COC(=O)c1ccc2c(C(=Nc3ccc(N(C)C(=O)CN4CCN(C)CC4)cc3)c3ccccc3)c(O)[nH]c2c1`, the GI50 in assay [1] is 1.58 µM and 2.51 µM; in assay [2], 2.56 µM and 2.81 µM; in [3], 1.5 µM and 1.75 µM; in assay [4], 2.02 µM and 2.24 µM; in assay [5], 0.839 µM and 0.967 µM; in assay [6], 8.11 µM and 3.6 µM. Further, the GI50 is 5.23 µM and 6.98 µM in assay [7]; 1.79 µM and 2.29 µM in assay [8]; 2.18 µM and 3.09 µM in assay [9]; 1.58 µM and 1.48 µM in [10]. Also, the TGI in assay [2] is 16.7 µM and > 100 µM; in [3] it was 3.67 µM and 5.77 µM; in [4], 4 µM and 4.96 µM; in assay [5] it was 22.5 µM and > 100 µM; in assay [6] it was 19.1 µM and 8.86 µM; in [7] it was 28.4 µM and > 100 µM. For the same compound, the TGI in [9] is 5.09 µM and 21.4 µM; in [10], 3.06 µM and 2.97 µM.
`CCCCCCCCCCCC(=O)OC(COC(N)=O)COc1ccc(Cl)cc1` (configuration not stated): the TGI is over 100 µM in assay [1]; 35.9 µM in [2]; 31.5 µM in [3]; 47.4 µM in assay [4]; 81.2 µM in assay [5]; 74.4 µM in assay [6]. The TGI in assay [7] is 46 µM; in assay [8] it was 42.5 µM; in assay [9], 41.3 µM; in assay [10] it was 30 µM.
For the compound `N=C1/C(=C2\Nc3ccccc3S2)CC(=O)N1c1ccc(SC(F)F)cc1`, the GI50 is 6.98 µM in assay [1]; 0.839 µM in assay [2]; 17.3 µM in [3]; 0.81 µM in assay [4]; 5.07 µM in assay [5]; 27.3 µM in assay [6]. In addition, the GI50 is 18.7 µM in assay [7], 4.45 µM in [8], 24 µM in assay [9] and 8.89 µM in assay [10]. The TGI in assay [1] is over 100 µM; in assay [2], over 100 µM; in [3], over 100 µM; in assay [4], 30.9 µM; in assay [5], over 100 µM; in assay [6] it was over 100 µM. Also, the TGI in assay [7], in assay [8], in [9] and in [10] was over 100 µM in each case.
Turning to `Fc1ccc(C2C3CCOc4c(ccc5ccccc45)C3=NN2c2ccccc2)cc1` (configuration not stated), the GI50 in assay [1] was 88.6 µM; in assay [2], 16.6 µM; in [3], over 100 µM; in assay [4], 37.1 µM; in [5], over 100 µM; in [6] it was over 100 µM. The GI50 in assay [7] was over 100 µM; in [8], over 77.9 µM; in assay [9], over 66.2 µM; in assay [10], over 86.2 µM. Further, the TGI is over 100 µM in assay [1]; over 74.4 µM in [2]; over 100 µM in assay [3]; over 100 µM in assay [4]; over 100 µM in assay [5]; over 100 µM in [6]. Further, the TGI in assay [7], in assay [8], in assay [9] and in assay [10] was over 100 µM in each case.
